{
  "source": "patent US6342486B1",
  "about": "“Polymer glucan ether derivatives, their manufacturing as well as their use” (Mibelle AG Cosmetics, priority 1996, dated 2002)",
  "origin": "cited, not measured here",
  "conditions": "isolated glucan from yeast cells",
  "data": [
    {"substance": "1,3-beta-polyglucose [glucan]", "values": [
      {"measurement": "solubility in aqueous systems", "value": "extremely low solubility"}
    ]}
  ]
}
